According to US10208068B2, “Macrocycles as factor XIa inhibitors” (BRISTOL-MYERS SQUIBB COMPANY, priority 2011, dated 2019):
Counter-ions that a name gives are not always drawn.

These compounds were tested against human Factor XIa (Homo sapiens (Human), UniProt P03951) (assay: Factor XIa enzyme inhibition assay (chromogenic substrate S-2366)). Conditions: purified human Factor XIa 25-200 pM, substrate S-2366, 50 mM HEPES pH 7.4.
Format: biochemical

Chain of human Factor XIa (P03951 388-625): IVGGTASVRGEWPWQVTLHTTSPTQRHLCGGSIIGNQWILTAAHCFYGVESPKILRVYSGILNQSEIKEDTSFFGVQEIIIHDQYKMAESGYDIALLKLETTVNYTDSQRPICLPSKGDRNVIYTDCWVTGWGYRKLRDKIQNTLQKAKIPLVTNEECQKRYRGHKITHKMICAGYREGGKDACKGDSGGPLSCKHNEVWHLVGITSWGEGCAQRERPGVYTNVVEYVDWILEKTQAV
Chain of human Factor XIa (P03951 19-387 partner): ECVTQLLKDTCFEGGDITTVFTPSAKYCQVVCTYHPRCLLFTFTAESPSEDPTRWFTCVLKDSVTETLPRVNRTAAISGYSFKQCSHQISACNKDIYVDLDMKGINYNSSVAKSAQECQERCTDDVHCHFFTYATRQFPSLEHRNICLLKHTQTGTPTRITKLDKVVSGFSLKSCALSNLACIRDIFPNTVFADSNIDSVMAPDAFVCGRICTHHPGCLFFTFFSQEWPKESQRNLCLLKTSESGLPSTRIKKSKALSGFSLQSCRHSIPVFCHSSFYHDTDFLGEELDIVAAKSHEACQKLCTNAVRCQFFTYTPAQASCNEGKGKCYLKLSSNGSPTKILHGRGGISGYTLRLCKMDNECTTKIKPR

Row | Ki [nM] | SMILES
1 | < 5 | CCC1CCC[C@H](NC(=O)c2cn(-c3cccc(Cl)c3F)nn2)c2cc(ccn2)-c2ccc(NC(=O)OC)cc2NC1=O (single isomer, unassigned) [Example 24, TFA salt]
2 | 54.9 | COC(=O)Nc1ccc2c(c1)NC(=O)[C@H](C)C(O)CC[C@H](NC(=O)c1cnn(-c3cccc(Cl)c3F)c1C)c1cc-2ccn1 (single isomer, unassigned) [Example 177, TFA salt]
3 | < 5 | COC(=O)Nc1ccc2c(c1)NC(=O)[C@H](C)CCC[C@H](NC(=O)c1cn(-c3cccc(Cl)c3F)nn1)c1cc-2ccn1 [Example 3]
4 | 9.08 | COC(=O)Nc1ccc2c(c1)NC(=O)CCCC[C@H](NC(=O)c1cnn(-c3cccc(Cl)c3F)c1)c1cc-2ccn1 [Example 21, Methyl N-[(14S)-14-[1-(3-chloro-2-fluorophenyl)-1H-pyrazole-4-amido]-9-oxo-8,16-diazatricyclo[13.3.1.0^2,7]nonadeca-1(19),2(7),3,5,15,17-hexaen-5-yl]carbamate, TFA salt]
5 | 178 | CCOC(=O)C1CCCC[C@H](NC(=O)c2cnn(-c3cccc(Cl)c3F)c2)c2cc(ccn2)-c2ccc(NC(=O)OC)cc2N1 (stereo partly drawn) [Example 26, Ethyl (9R,14S)-14-[1-(3-chloro-2-fluorophenyl)-1H-pyrazole-4-amido]-5-[(methoxycarbonyl)amino]-8,16-diazatricyclo[13.3.1.0^2,7]nonadeca-1(19),2(7),3,5,15,17-hexaene-9-carboxylate, 2 TFA salt]
6 | 11.4 | COC(=O)Nc1ccc2c(c1)NC(=O)CCCC[C@H](NC(=O)c1cnn(-c3cccc(Cl)c3F)c1)c1cc-2cnc1F [Example 32, Methyl N-[(14S)-14-[1-(3-chloro-2-fluorophenyl)-1H-pyrazole-4-amido]-16-fluoro-9-oxo-8,17-diazatricyclo[13.3.1.0^2,7]nonadeca-1(19),2(7),3,5,15,17-hexaen-5-yl]carbamate, TFA salt]
7 | 36.5 | COC(=O)Nc1ccc2c(c1)NC(=O)[C@H](C)CCC[C@H](NC(=O)c1cncc(-c3cccc(Cl)c3F)c1)c1cc-2ccn1 [Example 75]
8 | 52.6 | COC(=O)Nc1ccc2c(c1)NC(=O)CCCC(C)[C@H](NC(=O)c1nnn(-c3cccc(Cl)c3F)c1C)c1cc-2ccn1 (stereo partly drawn) [Example 88, Methyl N-[(14S)-14-[1-(3-chloro-2-fluorophenyl)-5-methyl-1H-1,2,3-triazole-4-amido]-13-methyl-9-oxo-8,16-diazatricyclo[13.3.1.0^2,7]nonadeca-1(19),2(7),3,5,15,17-hexaen-5-yl]carbamate]

The remaining lines, values behind:

Row | SMILES | Ki [nM]
9 | COC(=O)Nc1ccc2c(c1)C(=O)NC(C)CCC[C@H](NC(=O)c1cnn(-c3cccc(Cl)c3F)c1C)c1cc-2ccn1 (single isomer, unassigned) [Example 221] | 312
10 | COC(=O)Nc1ccc2c(c1)NC(=O)[C@H](C)CCC[C@H](NC(=O)c1cnn(C3CCCNC3)c1)c1cc-2ccn1 (some centres unmarked) [Example 11] | 69.4
11 | COC(=O)Nc1ccc2c(c1)NC(=O)[C@H](C)CCC[C@H](NC(=O)c1nnn(-c3cccc(Cl)c3F)c1Cl)c1cc-2ccn1 [Example 15] | < 5
12 | COC(=O)Nc1ccc2c(c1)NC(=O)[C@H](C)CCC[C@H](NC(=O)c1cn(-c3cccc(C)c3)cn1)c1cc-2ccn1 [Example 18] | 98.7
13 | COC(=O)Nc1ccc2c(c1)NC(=O)[C@H](C)CCC[C@H](NC(=O)c1nnn(-c3cccc(Cl)c3F)c1C)c1nc-2c[nH]1 [Example 39] | 10.8
14 | COC(=O)Nc1ccc2c(c1)NC(=O)[C@H](C)CCC[C@H](NC(=O)c1cnn(-c3cccc(Cl)c3)c1C)c1nc-2c[nH]1 [Example 41] | 12.8
15 | COC(=O)Nc1ccc2c(c1)NC(=O)CCCC[C@H](NC(=O)c1cn(-c3cccc(Cl)c3)nn1)c1nc-2c[nH]1 [Example 52, Methyl N-[(14S)-14-[1-(3-chlorophenyl)-1H-1,2,3-triazole-4-amido]-9-oxo-8,16,18-triazatricyclo[13.2.1.0^2,7]octadeca-1(17),2,4,6,15(18)-pentaen-5-yl]carbamate] | 217
16 | COC(=O)Nc1ccc2c(c1)NC(=O)CC/C=C/C[C@H](NC(=O)c1c[nH]c(-c3c(F)ccc(Cl)c3F)n1)c1nc-2c[nH]1 [Example 58, Methyl ((12E,15S)-15-(((2-(3-chloro-2,6-difluorophenyl)-1H-imidazol-4-yl)carbonyl)amino)-9-oxo-8,17,19-triazatricyclo[14.2.1.0^2,7]nonadeca-1(18),2,4,6,12,16(19)-hexaen-5-yl)carbamate] | 935
17 | COC(=O)Nc1ccc2c(c1)NC(=O)[C@H](C)CCC[C@H](NC(=O)c1cn(-c3c(F)ccc(Cl)c3F)cn1)c1cc-2ccn1 [Example 72] | 10.4
18 | Cc1c(C(=O)N[C@H]2CCC[C@@H](C)C(=O)Nc3cc(NC(=O)C(F)(F)F)ccc3-c3ccnc2c3)nnn1-c1cccc(Cl)c1F [Example 137, 1-(3-Chloro-2-fluorophenyl)-5-methyl-N-[(10R,14S)-10-methyl-9-oxo-5-(trifluoroacetamido)-8,16-diazatricyclo[13.3.1.0^2,7]nonadeca-1(19),2(7),3,5,15,17-hexaen-14-yl]-1H-1,2,3-triazole-4-carboxamide] | 547
19 | Cc1c(C(=O)N[C@H]2CCC[C@@H](C)C(=O)Nc3cc(NC(=O)OCF)ccc3-c3ccnc2c3)nnn1-c1cccc(Cl)c1F [Example 139, Fluoromethyl N-[(10R,14S)-14-[1-(3-chloro-2-fluorophenyl)-5-methyl-1H-1,2,3-triazole-4-amido]-10-methyl-9-oxo-8,16-diazatricyclo[13.3.1.0^2,7]nonadeca-1(19),2(7),3,5,15,17-hexaen-5-yl]carbamate] | 5.49
20 | Cc1c(C(=O)N[C@H]2CCC[C@@H](C)C(=O)Nc3cc(Nc4ccncn4)ccc3-c3ccnc2c3)nnn1-c1cccc(Cl)c1F [Example 151] | 17.3
21 | CCOC(=O)CNc1ccc2c(c1)NC(=O)[C@H](C)CCC[C@H](NC(=O)c1nnn(-c3cccc(Cl)c3F)c1C)c1cc-2ccn1 [Example 156, Ethyl 2-{[(10R,14S)-14-[1-(3-chloro-2-fluorophenyl)-5-methyl-1H-1,2,3-triazole-4-amido]-10-methyl-9-oxo-8,16-diazatricyclo[13.3.1.0^2,7]nonadeca-1(19),2(7),3,5,15,17-hexaen-5-yl]amino}acetate] | 16.8
22 | Cc1c(C(=O)N[C@H]2CCC[C@@H](C)C(=O)Nc3cc(N)c(C(=O)O)cc3-c3ccnc2c3)nnn1-c1cccc(Cl)c1F [Example 158, (10R,14S)-5-Amino-14-[1-(3-chloro-2-fluorophenyl)-5-methyl-1H-1,2,3-triazole-4-amido]-10-methyl-9-oxo-8,16-diazatricyclo[13.3.1.0^2,7]nonadeca-1(19),2(7),3,5,15,17-hexaene-4-carboxylic acid] | < 5
23 | Cc1nnc(Nc2ccc3c(c2)NC(=O)[C@H](C)CCC[C@H](NC(=O)c2nnn(-c4cccc(Cl)c4F)c2C)c2cc-3ccn2)o1 [Example 159, 1-(3-Chloro-2-fluorophenyl)-5-methyl-N-[(10R,14S)-10-methyl-5-[(5-methyl-1,3,4-oxadiazol-2-yl)amino]-9-oxo-8,16-diazatricyclo[13.3.1.0^2,7]nonadeca-1(19),2(7),3,5,15,17-hexaen-14-yl]-1H-1,2,3-triazole-4-carboxamide] | 9.94
